These are literature values, as cited in patent publication US12478593B2, “Formulations for hair growth” (JENIVISION INC., priority 2016, dated 2025).

For one data set, the system named is eyelashes. Particulars: humans.
Data set [1] relates to eyelash hair follicle growth cycle. As to conditions: mouse eyelash model.
The conditions of data set [2]: Xalatan.

Each structure is given as a SMILES string.

Take `CCNC(=O)CCC/C=C\C[C@@H]1[C@@H](/C=C/[C@@H](O)CCc2ccccc2)[C@H](O)C[C@@H]1O` [bimatoprost]: the eyelash growth entry in the data set on eyelashes is “produces eyelash growth”. In data set [1], the “effect on anagen growth phase of eyelashes” value was “increased entry into anagen and extension of the anagen growth phase”. For `CC(C)OC(=O)CCC/C=C\C[C@@H]1[C@@H](CC[C@@H](O)CCc2ccccc2)[C@H](O)C[C@@H]1O` [latanoprost], in data set [2], the “stability in aqueous solution (de-esterification)” value was “facile hydrolysis”.
